Laboratory results reported in EP4707280A1, “1,4-CINEOLE DERIVATIVE AND INTERMEDIATE THEREOF, HERBICIDE CONTAINING SAID DERIVATIVE AS ACTIVE INGREDIENT, METHOD FOR USING HERBICIDE, AND METHOD FOR PREPARING AGROCHEMICAL COMPOSITION” (HOKKO CHEMICAL INDUSTRY CO., LTD., priority 2023, dated 2024).

Legend:
Assay type in all cases: in vivo
Digitaria ciliaris [1] = experiment: Test Example 7: herbicidal effect test by soil application in upland field (low dose); conditions: Digitaria ciliaris, 7.5 g per 10 ares, sprayed one day after sowing, 14 days after application, read-out: weed inhibition rate
How it was run: (§1)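 Upland soil (alluvial loam) pots, seeds mixed into top 1 cm layer → EC formulation diluted with water, sprayed onto soil 1 d post-sowing, 100 L/10 a → 7.5 g a.i./10 a → inhibition (%) scored at 14 d, n=2.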

Echinochloa crus-galli [2] = experiment: as above; conditions: Echinochloa crus-galli, 7.5 g per 10 ares, sprayed one day after sowing, 14 days after application, read-out: weed inhibition rate
How it was run: as §1

Digitaria ciliaris [3] = experiment: Test Example 8: herbicidal effect test by stem and leaf treatment in upland field (low dose); conditions: Digitaria ciliaris; 7.5 g per 10 ares; sprayed seven days after sowing, upland soil; 14 days after application; read-out: weed inhibition rate
Echinochloa crus-galli [4] = experiment: as above; conditions: Echinochloa crus-galli; 7.5 g per 10 ares; sprayed seven days after sowing, upland soil; 14 days after application; read-out: weed inhibition rate
Digitaria ciliaris [5] = experiment: Test Example 3: herbicidal effect test by soil application in upland field; conditions: Digitaria ciliaris, 120 g per 10 ares, sprayed one day after sowing, 14 days after application, read-out: weed inhibition rate
How it was run: (§2)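 Pre-emergence test: seeds mixed into top 1 cm of alluvial loam upland soil in pots; emulsifiable concentrate diluted in water sprayed on soil one day after sowing at 100 L/10 a, 120 g a.i./10 a. Weed inhibition rate (%) scored at 14 days, in duplicate.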

Echinochloa crus-galli [6] = experiment: as above; conditions: Echinochloa crus-galli, 120 g per 10 ares, sprayed one day after sowing, 14 days after application, read-out: weed inhibition rate
How it was run: as §2

Digitaria ciliaris [7] = experiment: Test Example 4: herbicidal effect test by stem and leaf treatment in upland field; conditions: Digitaria ciliaris; 120 g per 10 ares; sprayed seven days after sowing, upland soil; 14 days after application; read-out: weed inhibition rate
[8] = system: Echinochloa crus-galli var. formosensis; experiment: Test Example 1: herbicidal effect test by soil application in paddy rice; conditions: Echinochloa crus-galli, soil, 336 h; 120 g active ingredient per 10 ares; applied immediately after sowing, flooded pots; 14 days after application; read-out: weed inhibition rate
How it was run: (§3)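 Weeds sown 0–1 cm deep (30 seeds each) into fertilized, puddled paddy soil in Wagner pots. Pots are flooded immediately, water held near 3 cm, and the diluted emulsifiable concentrate is dripped in at once, delivering 120 g active ingredient per 10 ares under glass-greenhouse management.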

Scirpus juncoides [9] = experiment: as above; conditions: Schoenoplectiella juncoides, soil, 336 h; 120 g active ingredient per 10 ares; applied immediately after sowing, flooded pots; 14 days after application; read-out: weed inhibition rate
How it was run: as §3

Echinochloa crus-galli [10] = experiment: Test Example 4: herbicidal effect test by stem and leaf treatment in upland field; conditions: Echinochloa crus-galli; 120 g per 10 ares; sprayed seven days after sowing, upland soil; 14 days after application; read-out: weed inhibition rate
[11] = system: Echinochloa crus-galli var. formosensis; experiment: Test Example 2: herbicidal effect test by application during growth period of paddy rice; conditions: Echinochloa crus-galli; 120 g per 10 ares; applied seven days after sowing, flooded pots; 14 days after application; read-out: weed inhibition rate
How it was run: (§4)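 Steps: puddle fertilized paddy soil; sow 30 seeds of each weed at 0–1 cm; flood to roughly 3 cm and keep in a glasshouse; at day 7 drop in diluted emulsifiable concentrate (120 g a.i. per 10 ares); score inhibition (%) 14 days later, two replicates.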

Scirpus juncoides [12] = experiment: as above; conditions: Schoenoplectiella juncoides; 120 g per 10 ares; applied seven days after sowing, flooded pots; 14 days after application; read-out: weed inhibition rate
How it was run: as §4

[13] = system: Echinochloa crus-galli var. formosensis; experiment: Test Example 5: herbicidal effect test by soil application in paddy rice (low dose); conditions: Echinochloa crus-galli, soil, 336 h; 7.5 g per 10 ares; applied immediately after sowing, flooded pots; 14 days after application; read-out: weed inhibition rate
How it was run: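 Flooded-paddy soil application at low dose (7.5 g a.i. per 10 ares), given by dropper as diluted emulsifiable concentrate directly after sowing weeds 0–1 cm deep. Effect evaluated after 14 days in duplicate.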

[14] = system: Echinochloa crus-galli var. formosensis; experiment: Test Example 6: herbicidal effect test by application during growth period of paddy rice (low dose); conditions: Echinochloa crus-galli; 7.5 g per 10 ares; applied seven days after sowing, flooded pots; 14 days after application; read-out: weed inhibition rate
How it was run: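 Low-dose water application, 7.5 g a.i. per 10 ares, given by dropper into flooded pots (about 3 cm depth) 7 days after sowing of 30 weed seeds each at 0–1 cm. Evaluation of inhibition (%) took place 14 days later, duplicate per rate.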

CC(C)[C@]12C[C@@H](OCc3ccccc3F)[C@](C)(C[C@@H]1C)O2 (racemic) [1-1555, (1SR,2RS,4RS,5SR)-2-[(2-fluorophenyl)methoxy]-1,5-dimethyl-4-isopropyl-7-oxabicyclo[2.2.1]heptane]
≥ 80%: inhibition at 75 g/ha (Digitaria ciliaris [1]) | inhibition at 75 g/ha (Echinochloa crus-galli [2]) | inhibition at 75 g/ha (Digitaria ciliaris [3]) | inhibition at 75 g/ha (Echinochloa crus-galli [4]) | inhibition at 1200 g/ha (Digitaria ciliaris [5]) | inhibition at 1200 g/ha (Echinochloa crus-galli [6]) | inhibition at 1200 g/ha (Digitaria ciliaris [7]) | pest or weed control at 1200 g/ha [8] | pest or weed control at 1200 g/ha (Scirpus juncoides [9]) | inhibition at 1200 g/ha (Echinochloa crus-galli [10]) | inhibition at 1200 g/ha [11] | inhibition at 1200 g/ha (Scirpus juncoides [12]) | inhibition at 75 g/ha [13] | inhibition at 75 g/ha [14]

CC(C)C12CC(OCc3ccsc3)C(C)(CC1Cl)O2 (stereo not shown) [1-1324, 2-chloro-1-isopropyl-4-methyl-5-(3-thienylmethoxy)-7-oxabicyclo[2.2.1]heptane]
≥ 80%: inhibition at 75 g/ha (Digitaria ciliaris [1]) | inhibition at 75 g/ha (Echinochloa crus-galli [2]) | inhibition at 75 g/ha (Digitaria ciliaris [3]) | inhibition at 75 g/ha (Echinochloa crus-galli [4]) | inhibition at 1200 g/ha (Digitaria ciliaris [5]) | inhibition at 1200 g/ha (Echinochloa crus-galli [6]) | inhibition at 1200 g/ha (Digitaria ciliaris [7]) | pest or weed control at 1200 g/ha [8] | pest or weed control at 1200 g/ha (Scirpus juncoides [9]) | inhibition at 1200 g/ha (Echinochloa crus-galli [10]) | inhibition at 1200 g/ha [11] | inhibition at 1200 g/ha (Scirpus juncoides [12]) | inhibition at 75 g/ha [13] | inhibition at 75 g/ha [14]

COc1ccccc1CO[C@@H]1C[C@]2(C(C)C)O[C@@]1(C)C[C@@H]2Cl [1-11, (1R,2S,4S,5R)-2-chloro-1-isopropyl-5-[(2-methoxyphenyl)methoxy]-4-methyl-7-oxabicyclo[2.2.1]heptane]
≥ 80%: inhibition at 75 g/ha (Digitaria ciliaris [1]) | inhibition at 75 g/ha (Echinochloa crus-galli [2]) | inhibition at 75 g/ha (Digitaria ciliaris [3]) | inhibition at 75 g/ha (Echinochloa crus-galli [4]) | inhibition at 1200 g/ha (Digitaria ciliaris [5]) | inhibition at 1200 g/ha (Echinochloa crus-galli [6]) | inhibition at 1200 g/ha (Digitaria ciliaris [7]) | pest or weed control at 1200 g/ha [8] | pest or weed control at 1200 g/ha (Scirpus juncoides [9]) | inhibition at 1200 g/ha (Echinochloa crus-galli [10]) | inhibition at 1200 g/ha [11] | inhibition at 1200 g/ha (Scirpus juncoides [12]) | inhibition at 75 g/ha [13] | inhibition at 75 g/ha [14]

CC(C)[C@]12C[C@@H](OCc3c(F)cccc3Cl)[C@](C)(C[C@@H]1I)O2 [1-780, (1R,2S,4S,5R)-5-[(2-chloro-6-fluoro-phenyl)methoxy]-2-iodo-1-isopropyl-4-methyl-7-oxabicyclo[2.2.1]heptane]
≥ 80%: inhibition at 75 g/ha (Digitaria ciliaris [1]) | inhibition at 75 g/ha (Echinochloa crus-galli [2]) | inhibition at 75 g/ha (Digitaria ciliaris [3]) | inhibition at 75 g/ha (Echinochloa crus-galli [4]) | inhibition at 1200 g/ha (Digitaria ciliaris [5]) | inhibition at 1200 g/ha (Echinochloa crus-galli [6]) | inhibition at 1200 g/ha (Digitaria ciliaris [7]) | pest or weed control at 1200 g/ha [8] | pest or weed control at 1200 g/ha (Scirpus juncoides [9]) | inhibition at 1200 g/ha (Echinochloa crus-galli [10]) | inhibition at 1200 g/ha [11] | inhibition at 1200 g/ha (Scirpus juncoides [12]) | inhibition at 75 g/ha [13] | inhibition at 75 g/ha [14]

CC(C)[C@]12C[C@@H](OCc3c(F)cccc3F)[C@](C)(C[C@@H]1Cl)O2 [1-14, (1R,2S,4S,5R)-2-chloro-5-[(2,6-difluorophenyl)methoxy]-1-isopropyl-4-methyl-7-oxabicyclo[2.2.1]heptane]
≥ 80%: inhibition at 75 g/ha (Digitaria ciliaris [1]) | inhibition at 75 g/ha (Echinochloa crus-galli [2]) | inhibition at 75 g/ha (Digitaria ciliaris [3]) | inhibition at 75 g/ha (Echinochloa crus-galli [4]) | inhibition at 1200 g/ha (Digitaria ciliaris [5]) | inhibition at 1200 g/ha (Echinochloa crus-galli [6]) | inhibition at 1200 g/ha (Digitaria ciliaris [7]) | pest or weed control at 1200 g/ha [8] | pest or weed control at 1200 g/ha (Scirpus juncoides [9]) | inhibition at 1200 g/ha (Echinochloa crus-galli [10]) | inhibition at 1200 g/ha [11] | inhibition at 1200 g/ha (Scirpus juncoides [12]) | inhibition at 75 g/ha [13] | inhibition at 75 g/ha [14]
